Results: patent US20230346817A1, “COMPOSITION AND USE OF SGLT-2 INHIBITOR AND ANGIOTENSIN RECEPTOR BLOCKERS” (Beijing Creatron Institute of Pharmaceutical Research Co. …, priority 2020, published 2023)

Experiment: Related substances of active ingredient A, samples placed at 50° C. for 10 days
Format: physicochemical
Details: mixed powders
Protocol: The raw and auxiliary materials were weighed based on the formulation amount and mixed well. The mixed powder of each example was wrapped separately in a clean weighing paper, sealed in an aluminum foil bag, and placed at 50° C. for 10 days. Samples were then taken, determined for related substances and compared with the comparative example.

- Related substances of active ingredient B after placed under the influencing factor: no increase in impurities
SMILES: CCOc1ccc(Cc2cc([C@@H]3O[C@H](CO)[C@@H](O)[C@H](O)[C@H]3O)ccc2Cl)cc1 [active ingredient B, Dapagliflozin]
